Assay [1] relates to mites. The assay can be described thus: Control and elimination of mites in poultry flocks by bacitracin feed supplement (general finding). The format is in vivo. The text has this:
This unique use is for the control and elimination of mites in poultry flocks.

Assay [2] has as its system mites. Description: Treatment of mite-infested chicken flock with zinc bacitracin in the feed. Type of assay: in vivo. The text has this: The following example is offered to illustrate the manner in which the zinc bacitracin is used and the efficiency which it has realized. A flock of 10,000 Babcock chickens of an approximate age of 9-10 months, weighing approximately 3 pounds became heavily infested with mites. […] Ten months later the same flock again became mite infested.

Where a SMILES comes first, the peptide text is derived from it. Bridges are numbered along the chain shown (N, C = ends). [ ]: non-standard residue; d: D form. The star is where a group is joined. Ileψ(thiazoline)Cys = CC[C@H](C)[C@H](N)C1=N[C@H](C(=O)*)CS1; dOrn = NCCC[C@@H](N)C(=O)O

From patent publication US4335112A, “Method of treating mites in poultry” (priority 1981, dated 1982) come the findings set out here.

As for `CC[C@H](C)[C@H](N)C1=N[C@H](C(=O)N[C@@H](CC(C)C)C(=O)N[C@H](CCC(=O)O)C(=O)N[C@H](C(=O)N[C@H]2CCCCNC(=O)[C@H](CC(N)=O)NC(=O)[C@@H](CC(=O)O)NC(=O)[C@H](Cc3cnc[nH]3)NC(=O)[C@@H](Cc3ccccc3)NC(=O)[C@H]([C@@H](C)CC)NC(=O)[C@@H](CCCN)NC2=O)[C@@H](C)CC)CS1` [bacitracin] ({Ileψ(thiazoline)Cys}-L[dE]IK[dOrn]I[dF]H[dD]N; lactam 4-C), the toxicity to mites result in the assay on mites [1] (applicant's discovery, no details) was “toxic to mites”. Moreover, the “elimination of mites from infested poultry flock” value with mites [1] (between 100 and 200 grams of bacitracin per ton of poultry grain for several days) was “substantially eliminate mites”.
As for zinc bacitracin, in the assay with mites [2] (flock of 10,000 Babcock chickens, 9-10 months old, heavily infested, 100 grams per ton in normal feed for seven days), the “disappearance of mites from infested flock” value is given as “substantially all of the mites had disappeared”. Besides, in the assay with mites [2] (same flock again mite infested ten months later, same treatment (100 grams per ton feed, seven days)), the “effect of same treatment on re-infestation” value was “same effective results”.
